Measurements as given in PMC11266212, “Effect of Clarithromycin, a Strong CYP3A and P-glycoprotein Inhibitor, on the Pharmacokinetics of Edoxaban in Healthy Volunteers and the Evaluation of the Drug Interaction with Other Oral Factor Xa Inhibitors by a Microdose Cocktail Approach” (Cardiovascular Drugs and Therapy, 2023).
Like-named read-outs stand apart in the source and are kept apart here.

Assays:
[1] = cited from earlier work
CYP = settings: cited from earlier work
[2] = cited from earlier work; remark: listed apart in the source
clinical = settings: for GMR of dose-normalized AUC0-∞, microdose vs therapeutic dose: edoxaban 50 μg vs 60 mg; for AUC: AUC0-∝
Procedure: (§1) The study was an open-label, two-period, one-sequence DDI trial in healthy volunteers to assess the impact of clarithromycin on the pharmacokinetics of 60 mg edoxaban, given as a tablet, and the effect of clarithromycin on apixaban (25 μg), edoxaban (50 μg), and rivaroxaban (25 μg) administered as an oral microdose cocktail. Concurrently, the effect of clarithromycin on CYP3A activity was quantified by means of an oral midazolam microdose (30 μg) (Fig. 1).
(§2) CYP3A4 activity was quantified using a microdose of midazolam administered as an oral solution, which was administered directly before administering the FXaI [19, 20]. Clarithromycin was dosed to inhibition steady-state (7-day treatment prior to evaluation of any perpetrator effects and treatment continued until last blood sampling) and administered at a dose of 500 mg b.i.d. to ensure reliable inhibition of hepatic CYP3A4 (mechanism-based inhibition), while maximum CYP3A4 inhibition in the gut wall was expected to occur earlier. Single-dose pharmacokinetics of the FXaI were assessed at baseline and on day 8 (microdosed FXaI cocktail) and day 9 (edoxaban 60 mg) of clarithromycin treatment.
(§3) Venous plasma samples for pharmacokinetic FXaI analyses were collected before and 0.25, 0.5, 0.75, 1, 1.5, 2, 2.5, 3, 3.5, 4, 5, 6, 8, 10, 12, 24 (last sampling after microdoses), and 48 h (last sampling for edoxaban 60 mg) after drug administration. Midazolam pharmacokinetics were assessed using a limited sampling strategy with sampling at 2, 2.5, 3, and 4 h post dose. All samples were processed within 20 min, and plasma was stored at ≤ – 20 °C until analysis. Coagulation effects (international normalized ratio (INR) and activated partial thromboplastin time (aPTT)) were assessed at expected FXaI peak plasma concentrations (3 h post dose) in the accredited central laboratory of the hospital.
(§4) Apixaban, edoxaban, midazolam, and rivaroxaban plasma concentrations were quantified using validated highly sensitive ultra-performance liquid chromatography–tandem mass spectrometry (UPLC-MS/MS) methods with accuracy and precision values of less than or equal to ± 15 % [22, 23]. The corresponding lower limits of quantification were 1 pg/ml for microdosed midazolam, 2.5 pg/ml for all microdosed FXaI, and 1 ng/ml for regular doses of edoxaban.
(§5) Non-compartmental analyses of the FXaI and midazolam pharmacokinetics were performed using Phoenix WinNonlin 8.3 (Certara, Inc., Princeton, NJ, USA). Linear modelling of AUC ratios was done using the R software environment in version 4.0.4 (R Foundation for Statistical Computing, Vienna, Austria). Maximum plasma concentration (Cmax) and the time to reach Cmax (Tmax) were directly obtained from the pharmacokinetic data. The area under the concentration-time curve from 0 to infinity (AUC0-∞) was determined using the log-linear trapezoidal rule and by adding the extrapolated part until infinity. Half-life (t1/2) is calculated as ln(2)/λz , where the elimination rate constant λz was estimated using log-linear regression of the elimination phase. The apparent oral clearance (Cl/F) was calculated as dose/AUC0--∞ . CYP3A4 activity was determined using a limited sampling strategy using the midazolam AUC2-4 as described earlier. […] Exposure changes are described by evaluating the geometric mean ratio (paired t-test on log-transformed values) of AUC0-∞ and Cmax at baseline and under the influence of steady-state clarithromycin (90 % CI). The AUC2-4 of midazolam was evaluated at multiple time points using a repeated-measures analysis of variance after logarithmic transformation.

CYP3A = CYP3A activity by oral midazolam microdose (AUC2-4, limited sampling); format: in vivo, human (healthy volunteers); settings: human, plasma, 30 ug, oral microdose 30 μg
Procedure: as §1
CYP3A4 activity was quantified using a microdose of midazolam administered as an oral solution, which was administered directly before administering the FXaI [19, 20]. […] Single-dose pharmacokinetics of the FXaI were assessed at baseline and on day 8 (microdosed FXaI cocktail) and day 9 (edoxaban 60 mg) of clarithromycin treatment.
as §3, with “All samples were processed within 20 min, and plasma was stored at ≤ – 20 °C until analysis.” left out, “hospital. […]” for “hospital.”

[3] = tested on: coagulation markers (aPTT, INR); assay: Coagulation effects (aPTT, INR) 3 h post dose; format: in vivo, human (healthy volunteers); settings: for INR, mean / aPTT, mean: 180 min after administration
Procedure: as §3

[4] = Pharmacokinetics of a single 60 mg edoxaban dose before and during clarithromycin; settings: for Tmax / Vd: geometric mean; for Vd: Vz
Procedure: as §1, §2, §3, §4, §5

[5] = set-up: method as in PMID 32511684; settings: during clarithromycin compared to azithromycin, patients mainly anticoagulated with FXaI; cited from earlier work
[6] = Safety: adverse events in the trial; format: in vivo, human (healthy volunteers); settings: while taking clarithromycin 500 mg b.i.d.; 12 participants
P-gp = tested on: P-gp; set-up: method as in PMID 12848773, PMID 18987624; settings: digoxin given intravenously and orally; cited from earlier work
[7] = regular apixaban dose with clarithromycin, ref 24 (Garonzik et al. 2019)
[8] = human, in vivo, po, geometric mean
[9] = oral microdose cocktail, at clarithromycin steady-state
[10] = oral microdose cocktail, baseline
[11] = regular rivaroxaban dose with clarithromycin, ref 16 (Mueck et al. 2013)
[12] = edoxaban 60 mg with clarithromycin
[13] = edoxaban 60 mg, clarithromycin steady state vs baseline
[14] = human, in vivo, 60 mg, edoxaban 60 mg, at clarithromycin steady-state
[15] = human, in vivo, 60 mg, edoxaban 60 mg, baseline
[16] = oral microdose cocktail, clarithromycin steady state vs baseline

COc1ccc(-n2nc(C(N)=O)c3c2C(=O)N(c2ccc(N4CCCCC4=O)cc2)CC3)cc1 [Apixaban, apixaban]
exposure increase caused by verapamil or diltiazem [1]: approximately 40% | exposure change with ketoconazole ([1]; therapeutic dose of apixaban): 99% | CYP contribution to overall clearance (CYP): 21% | increase of concentrations (exposure) by clarithromycin ([2]; apixaban): 60% | AUC0-∝ geometric mean ratio [2, 7]: 1.60 | Cmax geometric mean ratio [2, 7]: 1.30 | Cl / F, geometric mean (clinical; human, in vivo, po): 4.9 L/h | Vz, geometric mean (clinical; human, in vivo, po): 52 L | t1/2, geometric mean (clinical; human, in vivo, po): 7.1 h | Cmax (clinical; [8]): 0.653 ng/mL | Tmax, geometric mean (clinical; [9]): 2.23 h | Tmax, geometric mean (clinical; [10]): 1.9 h

Cc1ncc2n1-c1ccc(Cl)cc1C(c1ccccc1F)=NC2 [Midazolam, midazolam]
AUC (CYP3A; at clarithromycin steady-state): 0.672 ng·h/mL | AUC (CYP3A; baseline): 0.107 ng·h/mL

O=C(NC[C@H]1CN(c2ccc(N3CCOCC3=O)cc2)C(=O)O1)c1ccc(Cl)s1 [Rivaroxaban, rivaroxaban]
exposure increase caused by verapamil or diltiazem [1]: approximately 40% | exposure change with ketoconazole ([1]; therapeutic dose of rivaroxaban): 158% | CYP contribution to overall clearance (CYP): 32% | AUC0-∝ geometric mean ratio [2, 11]: 1.54 | Cmax geometric mean ratio [2, 11]: 1.40 | increase of concentrations (exposure) by clarithromycin ([2]; rivaroxaban): 50–100% | magnitude of drug interaction (exposure increase) with clarithromycin ([2]; therapeutic doses of rivaroxaban): 54% | Cl / F, geometric mean (clinical; human, in vivo, po): 9.0 L/h | Tmax (clinical; human, in vivo, po): 0.917 h | Vz, geometric mean (clinical; human, in vivo, po): 85 L | t1/2, geometric mean (clinical; human, in vivo, po): 6.3 h | Cmax (clinical; [8]): 0.65 ng/mL

CN1CCc2nc(C(=O)N[C@@H]3C[C@@H](C(=O)N(C)C)CC[C@@H]3NC(=O)C(=O)Nc3ccc(Cl)cn3)sc2C1 [Edoxaban, edoxaban]
effect of selective inhibition of CYP3A (by voriconazole) on pharmacokinetics [1]: does not affect its pharmacokinetics | exposure change with ketoconazole ([1]; therapeutic dose of edoxaban): 87% | INR, change during clarithromycin, GMR ([3]; edoxaban 60 mg): 1.39 | INR, mean ([3]; edoxaban 60 mg alone): 1.23 | aPTT, mean ([3]; edoxaban 60 mg alone): 33.4 | INR, mean [3, 12]: 1.43 | aPTT, mean [3, 12]: 40.2 | contribution of CYP3A to the overall metabolic clearance (CYP): 1% | increase of edoxaban exposure by clarithromycin ([4]; edoxaban 60 mg): 53% | Cl / F, geometric mean ([4]; edoxaban 60 mg, at clarithromycin steady-state): 34 L/h | Cmax, geometric mean ([4]; edoxaban 60 mg, at steady-state clarithromycin): 258 ng/mL | Cl / F, geometric mean ([4]; edoxaban 60 mg, baseline): 51 L/h | AUC0-∝ geometric mean ratio [4, 13]: 1.53 | Cmax geometric mean ratio [4, 13]: 1.27 | Cmax ([4]; human, in vivo, 60 mg): 203 ng/mL | Tmax [4, 14]: 1.67 h | Tmax [4, 15]: 1.27 h | Vd [4, 14]: 361 L | Vd [4, 15]: 594 L | AUC ([4]; human, in vivo, po, 60 mg): 1170 ng·h/mL | GMR of dose-normalized AUC0-∞, microdose vs therapeutic dose (clinical; at baseline): 1.08 | GMR of dose-normalized AUC0-∞, microdose vs therapeutic dose (clinical; at steady-state of clarithromycin): 1.43 | AUC (clinical; human, in vivo, po, geometric mean, oral microdose cocktail (25 μg apixaban, 50 μg edoxaban, 25 μg rivaroxaban), baseline): 1.05 ng·h/mL | AUC (clinical; human, in vivo, po, geometric mean, oral microdose cocktail, at steady-state clarithromycin (day 8)): 2.13 ng·h/mL | Cmax (clinical; human, in vivo, po, geometric mean, oral microdose cocktail, at steady-state clarithromycin): 0.341 ng/mL | Cmax (clinical; human, in vivo, po, geometric mean, oral microdose cocktail, baseline): 0.153 ng/mL | Tmax (clinical; human, in vivo, po, Tmax, geometric mean, oral microdose cocktail, at clarithromycin steady-state): 1.72 h | Tmax (clinical; human, in vivo, po, Tmax, geometric mean, oral microdose cocktail, baseline): 1.17 h | Cl / F, geometric mean (clinical; [9]): 23 L/h | Vz, geometric mean (clinical; [9]): 217 L | Cl / F, geometric mean (clinical; [10]): 48 L/h | Vz, geometric mean (clinical; [10]): 399 L | AUC0-∝ geometric mean ratio (clinical; [16]): 2.03 | Cmax geometric mean ratio (clinical; [16]): 2.22

CC[C@H]1OC(=O)[C@H](C)[C@@H](O[C@H]2C[C@@](C)(OC)[C@@H](O)[C@H](C)O2)[C@H](C)[C@@H](O[C@@H]2O[C@H](C)C[C@H](N(C)C)[C@H]2O)[C@](C)(OC)C[C@@H](C)C(=O)[C@H](C)[C@@H](O)[C@]1(C)O [clarithromycin]
increase of the risk of hospital admission due to major bleeding events [5]: 71% | adverse event dysgeusia, number of participants [6]: 9

C[C@H]1O[C@@H](O[C@H]2[C@@H](O)C[C@H](O[C@H]3[C@@H](O)C[C@H](O[C@H]4CC[C@@]5(C)[C@H](CC[C@@H]6[C@@H]5C[C@@H](O)[C@]5(C)[C@@H](C7=CC(=O)OC7)CC[C@]65O)C4)O[C@@H]3C)O[C@@H]2C)C[C@H](O)[C@@H]1O [digoxin]
reduction of renal tubular secretion by oral clarithromycin (P-gp): 15%
